From the Bradley open melting point set (2014)
Several values for one entry are separate records, joined by “and”; a condition that tells them apart may be missing. Equal values may be shown once.

Row | SMILES | melting point
1 | ClC(Cl)c1ccccc1 [a,a-dichlorotoluene] | -16 °C
2 | CC(=NNC(=O)c1ccncc1)c1ccco1 [a-Methylfurfurylidenehydrazide of Isonicotinic Acid] | 199 °C
3 | CCCC(=O)Nc1ccc(OCC(O)CNC(C)C)c(C(C)=O)c1 (centres undefined) [acebutolol] | 119 °C
4 | CCC(Br)(CC)C(=O)NC(=O)NC(C)=O [acecarbromal] | 109 °C
5 | CCOC(C)OCC [acetaldehyde diethyl acetal] | -100 °C
6 | CC(N)=O [acetamide] | 80 °C
7 | CC(=O)Nc1ccc(OC(=O)c2ccccc2O)cc1 [acetaminosalol] | 187 °C
8 | CC(=O)OC(C)=O [acetic anhydride] | -73 °C
9 | CC(=O)c1ccc(S(=O)(=O)NC(=O)NC2CCCCC2)cc1 [acetohexamide] | 188 °C
10 | CC(C)=NO [acetone oxime] | 62 °C
11 | CC(=O)Cl [acetyl chloride] | -112 °C
12 | C=CC(N)=O [acrylamide] | 84 °C
13 | C=CC(=O)O [acrylic acid] | 13 °C
14 | C=CC(=O)O [acrylic_acid] | 13 °C
15 | Nc1nc2c(ncn2COCCO)c(=O)[nH]1 [acyclovir] | 255 °C
16 | O=C(O)C12CC3CC(CC(C3)C1)C2 [adamantane-1-carboxylic acid] | 175 °C
17 | Nc1ncnc2c1ncn2[C@@H]1O[C@H](CO)[C@@H](O)[C@H]1O [adenosine] | 234 °C
18 | O=C(CS(=O)C(c1ccccc1)c1ccccc1)NO (centres undefined) [adrafinil] | 159 °C
19 | CN(C)CC(=O)N1c2ccccc2Sc2ccccc21 [ahistan] | 144 °C
20 | C=CCOc1ccc(CC(=O)O)cc1Cl [alclofenac] [listing 1 of 2 here] | 92.5 °C
21 | C=CCOc1ccc(CC(=O)O)cc1Cl [alclofenac] [listing 2 of 2 here] | 92 °C
22 | C=CCc1cc(OC)c(O)c(C(=O)NCCO)c1 [alibendol] | 95 °C
23 | CC(C)(C(=O)O)c1ccccc1 [alpha,alpha-dimethylphenylacetic acid] | 81 °C
24 | OC[C@H]1O[C@H](O)[C@H](O)[C@@H](O)[C@@H]1O [alpha-D-Glucopyranose] | 154 °C
25 | CC(=O)OC[C@H]1O[C@H](OC(C)=O)[C@H](OC(C)=O)[C@@H](OC(C)=O)[C@@H]1OC(C)=O [alpha-D-glucose pentaacetate] | 111 °C
26 | O=C(O)C(F)c1ccccc1 (stereo not drawn) [alpha-fluorophenylacetic acid] | 80 °C
27 | ClC1C(Cl)C(Cl)C(Cl)C(Cl)C1Cl (stereo not drawn) [alpha-hexachlorocyclohexane] | 160 °C

Row | SMILES | melting point
28 | O=C1OC(c2ccc(O)c3ccccc23)(c2ccc(O)c3ccccc23)c2ccccc21 [alpha-naphtholphthalein] | 239 °C
29 | Cc1ccc(CS(=O)(=O)Cl)cc1 [alpha-p-xylenesulfonyl chloride] | 77 °C
30 | CC1=CC[C@@H]2C[C@H]1C2(C)C [alpha-pinene] | -62 °C
31 | CCCN(CCC)C(=O)Cc1c(-c2ccc(Cl)cc2)nc2ccc(Cl)cn12 [alpidem] | 140 °C
32 | O=C2\C(=C(/N(N2c1ccccc1)C)C)N(C)C [aminopyrine] | 108 °C
33 | Nc1cccc(-n2ccccc2=O)c1 [amphenidone] | 183 °C
34 | CC1(C)S[C@@H]2[C@H](NC(=O)[C@H](N)c3ccccc3)C(=O)N2[C@H]1C(=O)O [ampicillin] | 200 °C
35 | CC12CCC=C1C1CCC3CC(O)CCC3(C)C1CC2 (centres undefined) [androst-14-en-3-ol] | 130 °C
36 | CC12CCC3C(CCC4CCCCC43C)C1CC(=O)C2 (centres undefined) [androstan-16-one] | 108 °C
37 | N#Cc1c2ccccc2cc2ccccc12 [anthracene-9-carbonitrile] | 177 °C
38 | c1ccc2cc3ccccc3cc2c1 [anthracene] | 216 °C (4×) and 218 °C
39 | O=C2\C=C(/N(N2c1ccccc1)C)C [antipyrine] | 111 °C and 112 °C and 109 °C
40 | Nc1ncnc2c1ncn2Cc1c(F)cccc1Cl [arprinocid] | 245 °C
41 | NC(CC(=O)O)C(=O)O (centres undefined) [aspartic acid] | 275 °C
42 | CC(=O)Oc1ccccc1C(=O)O [aspirin] [listing 1 of 2 here] | 138 °C
43 | CC(=O)Oc1ccccc1C(=O)O [aspirin] [listing 2 of 2 here] | 142 °C
44 | COc1ccc(CCN2CCC(Nc3nc4ccccc4n3Cc3ccc(F)cc3)CC2)cc1 [astemizole] | 149 °C
45 | OC(c1ccccc1)(c1ccccc1)C1CCNCC1 [azacyclonol] | 160 °C
46 | O=Cc1ccc(O)cc1O [b-Resorcylaldehyde] | 136 °C
47 | C=C1CCC2CC1C2(C)C (centres undefined) [b-pinene] | -61 °C
48 | CCCCNCC(O)c1ccc(O)cc1 (centres undefined) [bamethan] | 124 °C
49 | CN1CCC(N(Cc2ccccc2)c2ccccc2)CC1 [bamipine] | 114 °C
50 | c1ccc(-c2ccnc3c2ccc2c(-c4ccccc4)ccnc23)cc1 [bathophenanthroline] | 220 °C
51 | CNC(=O)c1cc([N+](=O)[O-])cc([N+](=O)[O-])c1 [benzamide, N-methyl-3,5-dinitro-] | 149 °C
52 | NC(=O)c1ccccc1 [benzamide] | 129 °C and 130 °C
53 | C(=Cc1ccccc1)Cc1ccccc1 [benzene, 1,1'-(1-propene-1,3-diyl)bis-] | 155 °C
54 | OB(O)c1ccccc1 [benzeneboronic acid] | 217 °C
